Key:
[1] = system: gastric acid secretion (pentagastrin-stimulated acid output from the gastric pouch); assay: Gastric acid antisecretory activity in pentagastrin-stimulated conscious Heidenhain pouch dogs; format: in vivo; details: Canis lupus familiaris; for inhibition in vivo at up to 2 mg/kg: at the same (oral 2 mg/kg) or a lower dose; for inhibition in vivo at 2 mg/kg: oral dose of 2 mg/kg, Heidenhain pouch dogs, pentagastrin
Experimental: The gastric acid antisecretory activity of compounds of the present invention was determined in overnight fasted, conscious Heidenhain pouch dogs. Pentagastrin (Pentavolon-Ayerst) was used to stimulate acid output by continuous infusion into a superficial leg vein at doses earlier determined to stimulate near maximal acid output from the gastric pouch. Gastric juice was collected at 30 minute intervals following the start of a pentagastrin infusion and measured to the nearest 0.1 ml. Ten collections were taken for each dog during an experiment. Acid concentration was determined by tritrating 1.0 ml of gastric juice to pH 7.4 with 0.1N sodium hydroxide using an Autoburette and a glass electrode pH meter (Radiometer).
Drug or vehicle was given intravenously or orally 90 minutes following the start of the pentagastrin infusion, at a dose of 2 mg/kg or less. Gastric acid antisecretory effects were calculated by comparing the lowest acid output after drug administration with the mean acid output immediately before drug.

[2] = biological target: T1, histamine-H2 receptor (Cavia porcellus, UniProt P47747); assay: Histamine-H2 antagonist activity in isolated guinea pig right atria (pA2); format: cell-based, Guinea pigs; details: Krebs-Henseleit buffer pH 7.4, 32°±2° C., histamine dose-response, * tested as the dihydrobromide salt, read-out: pA2 (apparent dissociation constant of the H2-receptor antagonist) (converted)
T1 construct: the heart removed and the right atria dissected free; from tissue; host or cells: guinea pig right atria (isolated, spontaneously beating)
T1 sequence (P47747 whole entry): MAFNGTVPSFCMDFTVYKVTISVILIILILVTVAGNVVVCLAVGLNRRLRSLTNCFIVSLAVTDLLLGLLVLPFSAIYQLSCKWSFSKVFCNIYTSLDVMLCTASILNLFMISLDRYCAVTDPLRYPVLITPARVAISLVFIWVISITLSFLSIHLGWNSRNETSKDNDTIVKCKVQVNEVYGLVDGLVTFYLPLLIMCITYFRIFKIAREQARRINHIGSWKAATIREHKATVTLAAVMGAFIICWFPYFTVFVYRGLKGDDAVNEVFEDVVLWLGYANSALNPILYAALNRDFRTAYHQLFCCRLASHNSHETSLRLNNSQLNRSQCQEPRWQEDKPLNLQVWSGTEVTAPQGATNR
Experimental: The histamine-H2 antagonist activity of compounds of the present invention was determined by the following procedure:
Guinea pigs are killed rapidly with a blow to the head, the heart removed and the right atria dissected free. Atria are suspended, isometrically, in a temperature-controlled (32°±2° C.) tissue bath (10 ml) containing oxygenated (95% O2; 5% CO2) Krebs-Henseleit buffer (pH 7.4) and are allowed to stabilize approximately one hour during which time the tissue bath is flushed several times. Individual atrial contractions are followed with a force-displacement transducer connected to a cardiotachometer and Grass polygraph recorder. After obtaining a dose-response curve to histamine, the bath containing each atrium is flushed several times with fresh buffer and the atria reequilibrated to basal rates. Following the return to basal rate, test compounds are added at selected final concentrations and the histamine dose-response curve is again determined in the presence of antagonist. Results are expressed as dose-ratios, the ratio of histamine concentrations required to produce one-half of maximal stimulation in the presence and absence of antagonist, and the apparent dissociation constant of the H2 -receptor antagonist pA2, is determined.

[3] = system: ethanol-induced gastric ulceration; assay: Inhibition of ethanol-induced ulceration in rats; format: in vivo, male rats; details: for cytoprotection (inhibition of ethanol-induced ulceration): same dosage, 30 mg/kg oral
Experimental: The antiulcer activity of the products of this invention was also determined by an ethanol-induced rat ulcer assay. In this test, overnight fasted male rats are given drug (at 30 or 3 mg/kg) or water orally fifteen minutes prior to an orally administered dose of absolute ethanol (1.0 ml). One hour after the ethanol challenge the animals (8/group) are killed and the stomachs examined for the presence of lesions. After sacrifice the abdomen is opened and a locking hemostat placed at the pylorus. Six ml of a 4% solution of formaldehyde was injected into the stomach with a gastric feeding tube and a second locking hemostat was used to seal the esophagus. The stomach was removed, opened along the greater curvature and examined for ulceration.
The scoring system used to quantitate the ethanol-induced lesions is given below.
For each group of animals an ulcer index is calculated as follows:
Ulceration Index=(the sum of the scores of the group)×(the sum of the number of ulcers in the group)×(the fraction of the group having any incidence of ulceration).
The percentage inhibition of ulcers is calculated as follows:
% Inhibition=100×[(ulcer index controls)-(ulcer index
drug-treated)].div.(ulcer index controls).

[4] = * tested as the dihydrobromide salt
[5] = oral dose of 3 mg/kg, * tested as the dihydrobromide salt
[6] = oral dose of 30 mg/kg, fifteen minutes prior to absolute ethanol

| Structure (SMILES) | inhibition in vivo at 0.1 mg/kg ([1]; iv, dose of 0.1 mg/kg (i.v.), * tested as the dihydrobromide salt) | inhibition in vivo at up to 2 mg/kg [1, 4] | Kb [2] | inhibition of ethanol-induced ulceration [3, 5] | cytoprotection (inhibition of ethanol-induced ulceration) [3] | inhibition in vivo at 2 mg/kg [1] | inhibition of ethanol-induced ulceration [3, 6] |
| --- | --- | --- | --- | --- | --- | --- | --- |
| CCCCCCNC(N)=Nc1nc(-c2c[nH]c(C)n2)cs1 [Example 5*] | 58% | ≥ 64% | ≤ 63.1 nM | – | – | – | – |
| Cc1nc(-c2csc(NC(=N)NCc3ccccc3)n2)c[nH]1 [Example 6a, N-[4-(2-methylimidazol-4-yl)thiazol-2-yl]-N'-benzylguanidine] | – | – | ≤ 63.1 nM | – | – | – | – |
| CCCCCCC(C)NC(=N)Nc1nc(-c2c[nH]c(C)n2)cs1 (stereo not shown) [Example 6b, N-[4-(2-methylimidazol-4-yl)thiazol-2-yl]-N'-2-octylguanidine] | – | ≥ 64% | ≤ 63.1 nM | at least 40% | – | – | – |
| CCCCCNC(N)=Nc1nc(-c2c[nH]c(C)n2)cs1 [Example 6c] | – | ≥ 64% | ≤ 126 nM | – | ≥ 90% | – | – |
| CCCCCCCNC(N)=Nc1nc(-c2c[nH]c(C)n2)cs1 [Example 6f] | – | – | ≤ 63.1 nM | – | ≥ 90% | ≥ 24% | at least 77% |
| CCCCCCCCNC(N)=Nc1nc(-c2c[nH]c(C)n2)cs1 [Example 6g] | – | – | ≤ 126 nM | – | – | ≥ 24% | – |
| CCCCCCC(C)NC(=N)Nc1nc(-c2c[nH]c(C)n2)cs1 (stereo not shown) [Example 6j, N-[4-(2-methylimidazol-4-yl)thiazol-2-yl]-N'-2-octylguanidine] | – | – | – | – | – | – | at least 77% |
| Cc1nc(-c2csc(NC(=N)NCc3ccccc3)n2)c[nH]1 [Example 6l, N-[4-(2-methylimidazol-4-yl)thiazol-2-yl]-N'-benzylguanidine] | – | ≥ 64% | – | at least 40% | – | – | at least 77% |
| Cc1nc(-c2csc(N=C(N)NCCc3ccccc3)n2)c[nH]1 [Example 6m] | – | ≥ 64% | ≤ 63.1 nM | – | – | – | at least 77% |
| Cc1nc(-c2csc(N=C(N)NCCCc3ccccc3)n2)c[nH]1 [Example 6n] | – | – | ≤ 63.1 nM | – | – | ≥ 24% | – |
| Cc1nc(-c2csc(N=C(N)NCCCCc3ccccc3)n2)c[nH]1 [Example 6o] | – | – | – | – | ≥ 90% | ≥ 24% | at least 77% |
